Reference: patent US9504685B2, “Method for treating a pulmonary hypertension condition” (Gilead Sciences, Inc., priority 2006, dated 2016)

Tested on: subjects with PAH
Assay: Example 2 (ARIES-1) placebo-controlled Phase III trial, efficacy
Assay type: in vivo, human
Conditions: for Clinical worsening event: Atrial septostomy / Clinical worsening event: Death / Clinical worsening event: Escape criteria / Clinical worsening event: Hospitalization for PAH / Clinical worsening event: Lung transplantation / Clinical worsening event: Study discontinuation due to addition of PAH treatment / Clinical worsening: Total subjects with ≧1 event / subjects hospitalized for worsening right heart failure / subjects who had an event of clinical worsening: 12 weeks; for Change in 6MWD from baseline to Week 12, mean: ITT population; for geometric mean percent change in plasma BNP, decrease from baseline / geometric mean percent change in plasma ET-1, increase from baseline: Week 12
Experimental: The primary objective of this study was to determine the effect of ambrisentan on exercise capacity in subjects with pulmonary arterial hypertension (PAH). The secondary objectives of this study were to evaluate effects of ambrisentan on other clinical measures of PAH, as well as safety and tolerability of the study drug.
Study drug was provided in round, biconvex, oral tablets that were identical in appearance. Three strengths of active study drug containing 2.5 mg, 5 mg or 10 mg of ambrisentan were used in this study. All study drug was packaged in blister cards. Subjects were instructed to take study drug once daily (q.d.) by mouth (p.o.) in the morning, with or without food.
The maximum study duration was up to 14 weeks from the time of initial screening procedures to the final study visit (Week 12). Screening procedures were performed a maximum of 2 weeks prior to the first dose of study drug. The maximum duration of study drug treatment was 12 weeks.
Men and women, 18 years of age or older, with idiopathic PAH, PAH associated with CTD, e.g., mixed CTD, CREST syndrome, systemic sclerosis (scleroderma), overlap syndrome or systemic lupus erythematosus, or PAH associated with anorexigen use or HIV infection were enrolled in this study. Subjects were to have a documented mean PAP≧25 mmHg, PVR>3 mmHgL/min, and PCWP or LVEDP<15 mmHg. Subjects must have been able to walk a distance of at least 150 m but no more than 450 m during 2 consecutive 6MWTs to be eligible for inclusion in the study.
After a 2 week screening period, eligible subjects were stratified based on the underlying etiology of PAH (idiopathic or non-idiopathic) and were randomized to 1 of 3 treatment groups (placebo, 5 mg or 10 mg ambrisentan) in a ratio of 1:1:1. One blinded dose reduction was permitted during the 12-week treatment period in the event of study drug intolerance (e.g., 10 mg to 5 mg, 5 mg to 2.5 mg, placebo to placebo). Subjects received a daily dose of 2.5 mg ambrisentan only if they reduced from the 5 mg dose group. Subjects were assessed for efficacy and safety at monthly intervals.
Therefore, after a minimum treatment period of 4 weeks, subjects who met 2 or more of the following predefined early escape criteria may have been removed from the study: • (a) a decrease from baseline of at least 20% in 6MWD; • (b) an increase of 1 or more WHO functional class; • (c) worsening right ventricular failure (e.g., as indicated by increased jugular venous pressure, new or worsening hepatomegaly, ascites or peripheral edema); • (d) rapidly progressing cardiogenic, hepatic or renal failure; and/or • (e) refractory systolic hypotension (systolic blood pressure <85 mmHg).
The primary efficacy endpoint was change from baseline in 6MWD evaluated after 12 weeks of treatment compared to placebo.
The secondary efficacy endpoints included: • (a) time to clinical worsening of PAH, as defined by the time from randomization to the first occurrence of death, lung transplantation, hospitalization for PAH, atrial septostomy, study discontinuation due to addition of other PAH therapeutic agents, or study discontinuation due to 2 or more early escape criteria; • (b) change from baseline measured after 12 weeks of treatment compared to placebo in: • (i) WHO functional class; • (ii) SF-36® health survey physical functioning scale; • (iii) BDI immediately following exercise; and/or • (iv) an assessment of the safety and tolerability of the study drug; and • (c) change from baseline measured after 12 weeks of treatment compared to placebo in plasma levels of ET-1, BNP and cTnT. Safety Assessments
For the ITT population, subjects were considered as belonging to their randomized treatment group, regardless of the actual treatment received.
The primary efficacy endpoint was the change from baseline in 6MWD evaluated after 12 weeks of treatment compared to placebo, where the last observation was carried forward. […]

[1] = 5 mg once daily, baseline to Week 12
[2] = 10 mg once daily, baseline to Week 12

Which “placebo-adjusted improvement in mean 6MWD at Week 12” value (5 mg once daily) does the source give for COC(c1ccccc1)(c1ccccc1)[C@H](Oc1nc(C)cc(C)n1)C(=O)O [ambrisentan] here?
The value was “+30.6 m”.

And the “subjects at least maintaining their baseline WHO functional class at Week 12” value (5 mg once daily)?
The value was 98.5%.

And the “Clinical worsening event: Atrial septostomy” value (5 mg once daily)?
Its value is 0 (0.0) subjects (% of ITT population).

And the “Clinical worsening event: Death” value (5 mg once daily)?
Its value is 1 (1.5) subjects (% of ITT population).

And the “Clinical worsening event: Escape criteria” value (5 mg once daily)?
The value was 0 (0.0) subjects (% of ITT population).

And the “Clinical worsening event: Hospitalization for PAH” value (5 mg once daily)?
The value was 2 (3.0) subjects (% of ITT population).

And the “Clinical worsening event: Lung transplantation” value (5 mg once daily)?
The value was 0 (0.0) subjects (% of ITT population).

What about the “Clinical worsening event: Study discontinuation due to addition of PAH treatment” value (5 mg once daily) of the same molecule?
Its value is 0 (0.0) subjects (% of ITT population).

And the “Clinical worsening: Total subjects with ≧1 event” value (5 mg once daily)?
Its value is 3 (4.5) subjects (% of ITT population).

And the “subjects hospitalized for worsening right heart failure” value (5 mg once daily)?
The value was 1 subjects.

And the “subjects who had an event of clinical worsening” value (5 mg once daily)?
The value was 3 subjects.

What about the “Change in 6MWD from baseline to Week 12, mean” value (5 mg once daily) of the same molecule?
Its value is “+22.8 meters”.

And the “geometric mean percent change in plasma BNP, decrease from baseline” value (5 mg once daily)?
The value was 30%.

And the “geometric mean percent change in plasma ET-1, increase from baseline” value (5 mg once daily)?
The value was 96%.

And the “Change in SF-36 Bodily pain, mean (SD)” value [1]?
Its value is −1.43 ± 13.21.

And the “Change in SF-36 General health, mean (SD)” value [1]?
The value was “+0.08 ± 8.45”.

And the “Change in SF-36 Mental component summary, mean (SD)” value [1]?
The value was “+0.50 ± 10.50”.

And the “Change in SF-36 Mental health, mean (SD)” value [1]?
Its value is “+0.81 ± 9.67”.

And the “Change in SF-36 Physical component summary, mean (SD)” value [1]?
Its value is “+1.88 ± 8.68”.

What about the “Change in SF-36 Physical functioning, mean (SD)” value [1] of the same molecule?
Its value is “+3.86 ± 7.14”.

What about the “Change in SF-36 Role-emotional, mean (SD)” value [1] of the same molecule?
The value was “+1.41 ± 13.95”.

What about the “Change in SF-36 Role-physical, mean (SD)” value [1] of the same molecule?
The value was “+4.22 ± 10.52”.

And the “Change in SF-36 Social functioning, mean (SD)” value [1]?
The value was “+1.11 ± 13.63”.

And the “Change in SF-36 Vitality, mean (SD)” value [1]?
The value was “+2.38 ± 10.06”.

And the “Change in WHO functional class: +1 class” value [1]?
The value was 1 (1.5) subjects (% of ITT population).

What about the “Change in WHO functional class: +2 classes” value [1] of the same molecule?
Its value is 0 (0.0) subjects (% of ITT population).

What about the “Change in WHO functional class: no change” value [1] of the same molecule?
Its value is 47 (70.1) subjects (% of ITT population).

What about the “Change in WHO functional class: −1 class” value [1] of the same molecule?
Its value is 18 (26.9) subjects (% of ITT population).

What about the “Change in WHO functional class: −2 classes” value [1] of the same molecule?
The value was 1 (1.5) subjects (% of ITT population).

And the “placebo-adjusted improvement in mean 6MWD at Week 12” value (10 mg once daily)?
Its value is “+51.4 m”.

And the “subjects at least maintaining their baseline WHO functional class at Week 12” value (10 mg once daily)?
The value was 95.5%.

What about the “Clinical worsening event: Atrial septostomy” value (10 mg once daily) of the same molecule?
The value was 0 (0.0) subjects (% of ITT population).

And the “Clinical worsening event: Death” value (10 mg once daily)?
Its value is 1 (1.5) subjects (% of ITT population).

What about the “Clinical worsening event: Escape criteria” value (10 mg once daily) of the same molecule?
Its value is 2 (3.0) subjects (% of ITT population).

And the “Clinical worsening event: Hospitalization for PAH” value (10 mg once daily)?
Its value is 2 (3.0) subjects (% of ITT population).

And the “Clinical worsening event: Lung transplantation” value (10 mg once daily)?
Its value is 0 (0.0) subjects (% of ITT population).

What about the “Clinical worsening event: Study discontinuation due to addition of PAH treatment” value (10 mg once daily) of the same molecule?
Its value is 1 (1.5) subjects (% of ITT population).

And the “Clinical worsening: Total subjects with ≧1 event” value (10 mg once daily)?
The value was 3 (4.5) subjects (% of ITT population).

What about the “subjects hospitalized for worsening right heart failure” value (10 mg once daily) of the same molecule?
Its value is 1 subjects.

What about the “subjects who had an event of clinical worsening” value (10 mg once daily) of the same molecule?
Its value is 3 subjects.

What about the “Change in 6MWD from baseline to Week 12, mean” value (10 mg once daily) of the same molecule?
Its value is “+43.6 meters”.

And the “geometric mean percent change in plasma BNP, decrease from baseline” value (10 mg once daily)?
The value was 45%.

What about the “geometric mean percent change in plasma ET-1, increase from baseline” value (10 mg once daily) of the same molecule?
The value was 48%.

And the “Change in SF-36 Bodily pain, mean (SD)” value [2]?
Its value is “+2.26 ± 12.22”.

And the “Change in SF-36 General health, mean (SD)” value [2]?
Its value is “+3.25 ± 8.81”.

What about the “Change in SF-36 Mental component summary, mean (SD)” value [2] of the same molecule?
Its value is “+2.11 ± 13.17”.

And the “Change in SF-36 Mental health, mean (SD)” value [2]?
The value was “+1.55 ± 12.66”.

And the “Change in SF-36 Physical component summary, mean (SD)” value [2]?
The value was “+4.79 ± 7.90”.

What about the “Change in SF-36 Physical functioning, mean (SD)” value [2] of the same molecule?
Its value is “+4.52 ± 7.16”.

What about the “Change in SF-36 Role-emotional, mean (SD)” value [2] of the same molecule?
Its value is “+2.98 ± 17.37”.

What about the “Change in SF-36 Role-physical, mean (SD)” value [2] of the same molecule?
Its value is “+6.67 ± 10.35”.
